The text below walks through data of PubChem BioAssay AID463206 (Broad Institute, 2010).

The term AC50 denotes the midpoint of the concentration-response curve, whichever way the signal moves.

Active and inactive are the calls of the source.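 Rule for the calls: active = caspase luminescence falls with dose and the half-maximal concentration AC50 from the fitted curve is at or below a set limit; inconclusive = flat fit at 30 to 70% signal loss, or invalid fit; inactive = AC50 above the limit, or signal rises instead.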 Bounds are passed on as bounds.

In this assay the test system is INS-1E cytokine-induced caspase-3/7, Caspase-Glo luminescence, 48 h. Briefly: suppression of cytokine-driven beta-cell apoptosis – INS-1E rat cells, luminescence, orthogonal assay for beta-cell apoptosis protection project, dose response (AID 463206).

Regarding `O=C(N/N=C(\c1ccccc1)c1ccccn1)c1ccccc1Cl`, the AC50 was > 26 µM (inactive). As for `O=[N+]([O-])c1ccc(N2CCN(C(=S)Nc3ccc(F)cc3)CC2)cc1`, the figure is > 26 µM (inactive); as for `Cc1ccc(NC(=O)Cc2nn(C)c(=O)c3ccccc23)cc1F`, > 26 µM (inactive). As for `Cc1ccc(Nc2nc(NCc3ccco3)c3ccccc3n2)cc1`, the figure is > 12 µM (inactive); as for `O=c1cnnc(N/N=C/c2ccccn2)[nH]1`, > 26 µM (inactive); as for `CCSC1=NCCN1C(=O)C(C)(C)Oc1ccc(Cl)cc1`, > 26 µM (inactive).

Turning to `Cc1occc(=O)c1OC(=O)Nc1ccc(Cl)c(Cl)c1`, the AC50 is > 26 µM (inactive). As for `COc1cccc(N=Nc2ccc(O)c3ncccc23)c1`, the figure is > 26 µM (inactive). Consider `Cc1ccc(-n2c(-c3ccccc3)c[n+]3c2CCC3)cc1`, for which the AC50 was > 26 µM (inactive).

For the compound `COc1ccc(C)cc1Nc1n[n+](-c2ccccc2)c(-c2c(OC)ccc3ccccc23)s1`, the AC50 is > 26 µM (inactive). As for `COC(=O)c1ccc2[nH]c3cccc(/C(=C/c4ccccc4)c4ccccc4)c3c2c1`, the figure is > 26 µM (inactive); as for `Oc1ccccc1/C=N/Nc1nc2ccccc2o1`, > 26 µM (inactive). Take `CCc1nnc(NC(=O)c2cccc(C(=O)Nc3nnc(CC)s3)n2)s1`: the AC50 is > 26 µM (inactive).

As to `CC(=O)c1c(C)oc2ccc(N(C(C)=O)S(=O)(=O)c3cccc4cccnc34)cc12`, the AC50 is > 26 µM (inactive). As for `CCCCOc1ncnc2c1[nH]c1ccc(F)cc12`, the figure is > 26 µM (inactive). As for `Cc1cc(C)c(S(=O)(=O)/N=C2\C=C(Nc3ccc(C(=O)O)cc3)C(=O)c3ccccc32)c(C)c1`, the figure is > 26 µM (inactive); as for `CCC(C)(C)c1ccc(OCCCC[n+]2ccc(C)cc2)c(C(C)(C)CC)c1`, > 26 µM (inactive); as for `CC(=O)/C=C1\N(C)c2ccc(C)cc2C1(C)C`, > 26 µM (inactive). As for `COc1cnc(-c2ccccn2)nc1N(C)C`, the figure is > 26 µM (inactive); as for `CCCCn1c(/C=N/Nc2nc3ccccc3[nH]2)nc2ccccc21`, > 26 µM (inactive); as for `Cc1ccc(NC(=O)c2nc(S(=O)(=O)Cc3ccccc3)ncc2Cl)cc1`, > 26 µM (inactive).

With `O=C(Nc1nc2ccccc2s1)c1cc(-c2ccccc2)nn1-c1ccccc1`, the AC50 was > 26 µM (inactive). As for `Cc1ccc(C2=CC(c3ccc(N(C)C)cc3)n3nnnc3N2)cc1` (stereo not drawn), the figure is > 26 µM (inactive); as for `Cc1ccccc1NC(=S)Nc1cccc2cnccc12`, > 26 µM (inactive); as for `CCC(=O)NC(c1cccs1)c1ccc2cccnc2c1O` (stereo not drawn), > 26 µM (inactive). As for `O=C(Nc1nc2ccc(F)cc2s1)c1ccccn1`, the figure is > 26 µM (inactive). Consider `COc1cccc(CN(C)C(=O)c2cc(COc3ccc4ncccc4c3)on2)c1`, for which the AC50 is > 26 µM (inactive).

In the case of `COc1ccc2c(c1)N(C)/C(=C/c1cccc[n+]1C)S2`, the AC50 was > 26 µM (inactive). On to `CC(C)c1ccc2c(c1)C(N1CCNCC1)Cc1ccc(F)cc1S2` (stereo not drawn), for which the AC50 is > 26 µM (inactive). As for `CC(=O)Oc1ccc(N(C(C)=O)S(=O)(=O)c2cccs2)c2ccccc12`, the figure is > 26 µM (inactive); as for `CC[C@]1(c2ccccc2OC)ON(c2ccccc2C(F)(F)F)C1=O`, > 26 µM (inactive). As for `CCS(=O)(=O)c1ncc(Cl)c(C(=O)Nc2ccccc2OC)n1`, the figure is > 26 µM (inactive); as for `COc1ccccc1NCC(=O)N1CCN(S(=O)(=O)c2ccccc2)CC1`, > 26 µM (inactive); as for `O=C(CNc1ccccc1)N/N=C/c1c(O)ccc2ccccc12`, > 26 µM (inactive).

`CCOC(=O)c1cnc(-n2nc(C)cc2C)nc1Nc1ccc(O)cc1`: the AC50 was > 26 µM (inactive). For the compound `CC(=O)Nc1ccc(C2=CC(=O)C[C@H](c3ccc4c(c3)OCO4)C2)cc1`, the AC50 was > 26 µM (inactive).

For the compound `CC(=O)Nc1ccccc1OCC(=O)c1cc(C)n(Cc2cccs2)c1C`, the AC50 was > 26 µM (inactive). As for `O=C1C=C(Nc2ccccc2O)c2ccccc2C1=O`, the figure is > 26 µM (inactive).

For `CCCOc1ccc(Br)cc1CSC(=N)N`, the AC50 was > 12 µM (inactive). As for `CC1CCN(c2ccc(NC(=O)c3ccc([N+](=O)[O-])o3)cc2)CC1`, the figure is > 26 µM (inactive); as for `CCn1c(=O)c(C(=O)Nc2nc3ccccc3[nH]2)c(O)c2ccccc21`, > 26 µM (inactive).

With `COc1ccc(C2CC(c3ccc4ccccc4c3OC(C)=O)=NN2C(C)=O)cc1` (stereo not drawn), the AC50 is > 26 µM (inactive). For the compound `CN(c1ccccc1)c1ccc(/C=C/[N+](=O)[O-])cc1`, the AC50 was > 26 µM (inactive). Regarding `CCN(CC)CCOc1ccc2c(c1)C(=NNC(=O)c1ccccn1)c1cc(OCCN(CC)CC)ccc1-2`, the AC50 is > 26 µM (inactive). As for `Cc1ccc(C)c(S(=O)(=O)Nc2ccc(O)c3ccccc23)c1`, the figure is > 26 µM (inactive); as for `CC(=O)/C=C/n1c(=S)oc2ccccc21`, > 26 µM (inactive); as for `O=C(Oc1c(CN2CCOCC2)cc(Cl)c2cccnc12)c1cccs1`, > 26 µM (inactive). For the compound `Cc1occc1C(=O)N/N=C/c1ccc2c(c1)OCO2`, the AC50 was > 26 µM (inactive). As for `Oc1c(C(Nc2ccccn2)c2cccnc2)cc(Cl)c2cccnc12` (stereo not drawn), the figure is > 26 µM (inactive). As for `CCn1c(C)c(C)c2cc(C(=O)N3CCc4ccccc4C3)ccc21`, the figure is > 26 µM (inactive); as for `CN1CCN(C2=C(NS(=O)(=O)c3cccs3)C(=O)c3ccccc3C2=O)CC1`, > 26 µM (inactive).

`Cc1cccc2nc(CSc3nc4[nH]ncc4c(=O)n3-c3cccc(Cl)c3)cc(=O)n12`: the AC50 was > 26 µM (inactive). As for `Cc1c(C(=O)N(Cc2ccccc2)C(C)C)oc2ccc(S(=O)(=O)N3CCOCC3)cc12`, the figure is > 26 µM (inactive); as for `COc1ccc(NS(=O)(=O)c2cccc(NC(=O)c3ccc(S(=O)(=O)N4CCCCCC4)cc3)c2)cc1`, > 26 µM (inactive); as for `CCCCCCCCCCCCn1ccc(=N)cc1`, > 26 µM (inactive).

On to `O=C(Nc1ccc(F)cc1F)N1CCCN(CCOc2ccccc2)CC1`, for which the AC50 is > 26 µM (inactive). As for `CCCCCN=Cc1c(C)[nH]n(-c2nc3ccccc3s2)c1=O`, the figure is > 26 µM (inactive). As for `CSc1nc(-c2ccccc2)nc(C(Cl)Cl)n1`, the half-maximal activity concentration (AC50) is 2.7 µM. As for `O=C(NCc1cccnc1)/C(=C/c1ccc(-c2ccc(Cl)cc2)o1)S(=O)(=O)c1ccccc1`, the figure is > 26 µM (inactive). As for `CNC1=C(N(C(C)=O)c2ccc(Br)cc2)C(=O)c2ccccc2C1=O`, the figure is > 26 µM (inactive); as for `Cc1nc(N2CCN(C(=O)c3ccco3)CC2)c2c3c(sc2n1)CC(C)CC3` (stereo not drawn), > 26 µM (inactive). As for `COc1ccccc1-n1c(=O)oc2ccc(Cl)cc2c1=O`, the figure is > 26 µM (inactive); as for `Cc1cc(NC2CCCCC2)nc(NCc2ccccc2)n1`, > 26 µM (inactive); as for `O=C(CCC(=O)Nc1ccc(Br)cc1)N/N=C/c1ccccc1O`, > 26 µM (inactive).

Regarding `COc1ccc(-c2cn(-c3ccc(Cl)cc3)c3[n+]2CCCCC3)cc1`, the AC50 is > 26 µM (inactive). As for `CCCc1sc(N/N=C/c2ccccn2)nc1-c1ccc(Br)cc1`, the figure is > 26 µM (inactive); as for `COc1ccc(C(CCN2CCCCC2)c2c(OC)cc(OC)c3c(-c4ccccc4)cc(=O)oc23)cc1` (stereo not drawn), 16.6 µM.

In the case of `O=C(Cc1cccs1)N/N=C\c1ccc([N+](=O)[O-])s1`, the AC50 was > 26 µM (inactive). As for `CN1/C(=C\C(=O)CN2C(=O)NC3(CCCCCC3)C2=O)C(C)(C)c2ccccc21`, the figure is > 12 µM (inactive).

As to `O=C(N/N=C/c1sc2ccccc2c1O)c1cccc2ccccc12`, the AC50 is > 26 µM (inactive).

Take `COc1ccc(/C=C/c2nc3ccccc3n2C)cc1`: the AC50 is > 26 µM (inactive). As for `O=C(Nc1cccnc1)c1cccnc1`, the figure is > 26 µM (inactive). As for `CC1CCC(C(C)C)C(OC(=O)Cn2c(-c3ccc(Cl)cc3)[n+](C)c3ccccc32)C1` (stereo not drawn), the figure is > 26 µM (inactive); as for `CC(O)CNc1nc2sc3c(c2c(=O)n1Cc1ccco1)CCCCC3` (stereo not drawn), > 12 µM (inactive). As for `O=C(Nc1ccc(OC(F)F)c(Cl)c1)C(c1ccccc1)c1ccccc1`, the figure is > 26 µM (inactive); as for `CCn1c(C)nc2cc(C(=O)N/N=C/c3cccc(O)c3O)ccc21`, > 26 µM (inactive); as for `Cc1sc2ncnc(NCC(O)c3ccc([N+](=O)[O-])cc3)c2c1C` (stereo not drawn), > 26 µM (inactive). For `COc1ccc([C@H]2CC(=O)C=C(c3ccnc4ccc(Cl)cc34)C2)cc1`, the AC50 was > 26 µM (inactive). As for `Cc1[nH]c2ccccc2c1CN1CCN(c2ccccn2)CC1`, the figure is > 26 µM (inactive); as for `CC1CCC(C(C)C)C(OC(=O)C[n+]2cc(-c3ccc(Cl)cc3)n3c2CCCCC3)C1` (stereo not drawn), > 26 µM (inactive). As for `CCOc1cccc(/C=N/NC(=O)c2cc(C3CC3)[nH]n2)c1O`, the AC50 was > 26 µM (inactive).

For `Cc1ccc(NC(=O)CCC(=O)N/N=C/c2ccc([N+](=O)[O-])o2)cc1C`, the AC50 was > 26 µM (inactive). As for `Cc1cc(/C=N/n2cnnc2)c(C)n1-c1ccc(OCc2ccc(Cl)cc2)cc1`, the figure is > 26 µM (inactive); as for `O=C(NNC(=O)c1ccccc1O)c1ccc(Cl)c(S(=O)(=O)N2CCc3ccccc32)c1`, 27.2 µM; as for `Cc1ccc(NC(=O)NCC2CCN(Cc3cccc(Cl)c3)CC2)cc1Cl`, > 26 µM (inactive). As for `CCn1c(-c2ccc(N(C)C)cc2)nc2ccccc21`, the figure is > 26 µM (inactive); as for `O=C(NNc1c(Cl)cc(Cl)cc1Cl)c1cccc([N+](=O)[O-])c1`, > 26 µM (inactive); as for `CC(C)NC(=S)N/N=C/c1cc(Br)ccc1O`, > 26 µM (inactive).
